From patent US11723934B2, “Compositions and methods for the induction of CD8+ T-cells” (Keio University, priority 2018, dated 2023)
“Also recorded” adds a separate entry of the source.

System: IFN+CD8+ T cells
Test: GF mice inoculated with human faecal samples or mouse B5 caecal contents, with or without antibiotics
Format: in vivo
Conditions: antibiotics via drinking water or chloroform-treated caecal contents
Text: Next, it was investigated whether the human gut microbiota contained microbes which were able to induce IFN+CD8+ T cells (FIG. 4). Stool samples were collected from six healthy human volunteers (A˜F) (FIG. 5). The samples were individually administered orally into germ free […] mice kept in sterile isolators (five or six mice per group). Four weeks after oral inoculation of stool samples, mice were sacrificed, and small intestine and colons were harvested and investigated for IFN+CD8+ T-cells by FACS.
The mice were then orally administrated drinking water with or without Ampicillin, Metronidazole, Streptomycin or Tylosin (five mice per group) (FIG. 10). Alternatively, cecal contents of mouse B #5 were treated with 3% chloroform and orally inoculated into another five germ-free mice (‘B #5+Chrolo’). […] B #5 microbiota.
Human faecal samples were collected at the RIKEN institute and Keio University according to the study protocol approved by the institutional review board. Informed consent was obtained from each subject. Faecal samples and mouse B5 caecal contents were suspended in equal volume (w/v) of PBS containing 20% glycerol/PBS, snap-frozen in liquid nitrogen, and stored at −80° C. until use. The frozen stocks were thawed, suspended in TS broth, filtered through a 100 µm cell strainer, and orally inoculated into GF mice (approximately 5-60 mg/250 μL, per mouse). After 24 hours of inoculation, some mice were treated with ampicillin (1 g/L), metronidazole (1 g/L), tylosin (0.5 g/L) or streptomycin (0.5 g/L) via the drinking water. For chloroform treatment of B5 caecal contents, the caecal content suspension was mixed with chloroform (final concentration 3%) and incubated in a shaking water bath for 60 min followed by evaporation of chloroform via bubbling with N2 gas for 30 min. To isolate IFN+[…] T cell-inducing bacterial strains, caecal contents from GF+B5-Amp2 and GF+B5-Amp3 mice were serially dilated with PBS and seeded onto nonselective and selective agar plates (GAM, CM0151, and BBE). After culture under anaerobic conditions (80% N2, 10% H2, 10% CO2) in an anaerobic chamber (Coy Laboratory Products) at 37° C. for 2 to 4 days, individual colonies were picked, and the 16S rRNA gene region was amplified with universal primers (27F: 5′-[…]-3′ (SEQ ID NO:12), 1492R: 5′-[…]-3′ (SEQ ID NO:13)) and sequenced. Individual isolates in the culture collection were grouped as “strains” if their 16S rRNA gene sequences had 100% identity. The resulting strain sequences were compared to those in the RDP database and to OTUs observed in caecal samples from GF+B5−Amp2 and GF+B5−Amp3 to determine closely related species or strains and their corresponding OTUs. To prepare a bacterial mixture, bacterial strains were individually grown in GAM, CM0149, or EG both to confluence and equal volumes of media were mixed. […] The mixture of isolates was orally administered to GF mice (approximately 1-2×10^8 CFU of each strain in 250 μL medium per mouse). All mice receiving a given mixture of bacterial strains were maintained in a single gnotobiotic isolator. For administration of heat-killed bacteria, 11 strains cultured individually for 3 days were mixed, washed with autoclaved water, heat-killed at 121° C. for 30 min, and given to GF mice via the drinking water (2-10×10^7 equivalent CFU of each strain per 1 mL) for 4 weeks. C57BL/6 GF mice (6-12 weeks old) were used and analysed 3-4 weeks after bacterial colonization unless otherwise indicated.

SMILES	effect of treatment on IFN+CD8+ T cell induction by mouse B5 microbiota	effect of treatment on IFN+CD8+ T cell induction by mouse B5 microbiota (listed as Amp)	effect of treatment on IFN+CD8+ T cell induction by mouse B5 microbiota (listed as Chlo)
CC1(C)S[C@@H]2[C@H](NC(=O)[C@H](N)c3ccccc3)C(=O)N2[C@H]1C(=O)O [Ampicillin, ampicillin]	enhanced induction	enhanced the induction of IFN+CD8 T cells; also recorded: enhanced the observed induction	–
[H]/N=C(/N)N[C@H]1[C@H](O)[C@@H](O)[C@H](O[C@@H]2O[C@@H](C)[C@](O)(C=O)[C@H]2O[C@@H]2O[C@@H](CO)[C@H](O)[C@@H](O)[C@@H]2NC)[C@@H](N/C(N)=N\[H])[C@@H]1O [STM, streptomycin]	substantial decrease in IFN+CD8 T cell induction	–	–
Cc1ncc([N+](=O)[O-])n1CCO [MNZ, metronidazole]	substantial decrease in IFN+CD8 T cell induction	–	–
CC[C@H]1OC(=O)C[C@@H](O)[C@H](C)[C@@H](O[C@@H]2O[C@H](C)[C@@H](O[C@H]3C[C@@](C)(O)[C@@H](O)[C@H](C)O3)[C@H](N(C)C)[C@H]2O)[C@@H](CC=O)C[C@@H](C)C(=O)/C=C/C(C)=C/[C@@H]1CO[C@@H]1O[C@H](C)[C@@H](O)[C@@H](OC)[C@H]1OC [Tyl, tylosin]	substantial decrease in IFN+CD8 T cell induction	–	–
ClC(Cl)Cl [chloroform]	reduced the induction capability; also recorded: abrogated induction altogether	–	abrogated it altogether
